Experimental findings from US7704953B2, “Phage displayed cell binding peptides” (MDRNA, Inc., priority 2006, dated 2010) are described below.

One test has as its system 16HBE140- cells. In words: Phage ELISA binding to 16HBE140- cells. The format is cell-based, human. As to conditions: unfixed cells; for OD 450 nm: 10^10 pfu/ml, average of triplicate wells; for Binding to 16HBE140- cells (in words): phage ELISA. The procedure: Phage binding to 16HBE140- cells was analyzed using confluent cells grown with DMEM-F12 complete medium in 96-well collagen coated plates (BD Biosciences, San Diego, Calif.) at 37° C. in 5% CO2. The cells were washed with DPBS and phage diluted in DPBS containing 1% BSA (DPBS-BSA) were applied in 100 μl. Bound phage were detected using primary antibody (mouse IgG T7 tail fiber monoclonal antibody diluted 1:2000 in DPBS-BSA) and secondary antibody (goat anti-mouse IgG HRP diluted 1:5000 in DPBS-BSA) followed by detection with OptEIA reagents as above.
Binding of phage T7Select®10-3b displaying Trp cage TC5b (Trp cage) was compared to binding of three phage clones selected from the naïve Trp cage library after 3 rounds of panning against the human bronchial epithelial cell line 16HBE140-. Results represent the average of triplicate wells.

In test [1] the test system is antibody AB167. Description: Phage ELISA for TAG suppression (binding of antibody AB167). Details: species or system rabbit. Conditions: 10^8 pfu/ml; relative to clone B1 grown in the same host; /B = nonsuppressor BLT5403, /C = suppressor C600CR; average of triplicate wells. How it is done:
(§1) Phage purified by double precipitation with PEG was diluted in Dulbecco's PBS (DPBS) and applied to wells of a 96-well Maxisorp® plate (Nalge Nunc International®, Rochester, N.Y.) and allowed to bind for one hour followed by three washes with 400 μl of OptEIA wash buffer (BD Biosciences) and blocking with 1% BSA in TBS-Tween (0.1%). All washes were done at room temperature with slow orbital shaking. Antibody AB 167 diluted 1:500 was applied in PBS-T containing 1% BSA and allowed to bind for one hour at room temperature then washed five times with 400 μl of wash buffer. Bound antibody was detected with the secondary antibody goat anti-rabbit HRP diluted 1:1000 in PBS-T with 1% BSA applied for one hour and washed five times with 400 μl of wash buffer followed by development with OptEIA reagents according to the manufacturer's directions. Means were compared using Student's t-test.
Growth of phage containing the insert encoding Trp cage TC5b in the host BLT5403 which limits expression to 5 to 10 copies of the peptide, produced clones displaying the expected sequence […] (SEQ ID NO: 530) with a low frequency of mutations (one out of twelve sequenced clones). […] Some of the mutant clones contained the TAG stop codon within the Trp cage sequence and were expected to result in the display of truncated peptides. Two nonsense mutants, E7 which contained a TAG stop codon at Tyr-3 of the Trp cage sequence NL*IQWLKDGGPSSGRPPPS (SEQ ID NOs: 588 and 534, respectively in order of appearance) and E12 which contained a TAG stop codon at Trp-6 of the Trp cage sequence NLYIQ*LKDGGPSSGRPPPS (SEQ ID NOs: 535 and 553, respectively in order of appearance), were chosen to test the effectiveness of the suppressor host C600CR by ELISA. […] Since AB167 is a polyclonal antibody, some binding to the truncated peptides of E7 and E12 was expected with possibly greater binding to E12 because it is three residues longer than E7.
Binding of antibody AB167 to T7Select® 10-3b phage grown in the nonsuppressor host BLT5403 (B) was compared with binding to phage grown in the suppressor host C600CR (C). […] Binding of the antibody to phage mutants E7 and E12 displaying truncated Trp cages grown in B (E7/B and E12/B, respectively) was related to antibody binding to phage clone B I displaying the full length Trp cage on a percentage basis. The phage mutants grown in C (E7/C and E12/C) were likewise related to B1 grown in C. Results represent the average of triplicate wells.

Test [2] concerns HepG2 cells. In words: Fluorescence microscopy with FITC-labeled phage on HepG2 cells. The format is cell-based, human. As to conditions: ~e9 pfu per well, 1 hr, visualized at 200×. How it is done: The phage microscopy protocol is as follows:
1. Grow HepG2 cells on collagen I coated glass chamber slides to 100% confluence.
2. On the day of the experiment, wash cells 3 to 5 times ˜300 μl/well of PBS.
3. Fix with 100 μl/well of methanol (chilled at −20C) for 7 min at room temperature.
4. Wash 3-5 times with ˜300 μl/well of PBS.
5. Apply 10 μl/well (˜e9 pfu) of FITC-labeled M13 phage.
6. Incubate on a rotating platform at room temperature for 1 hr in the dark.
7. Wash 5 times with ˜300 μl/well of PBS.
8. Remove chambers, dry, mount, and visualize at 200×.
(§2) Staining by the positive controls was less intense than NLQEFLF (SEQ ID NO: 61).

Test [3] deals with HepG2 cells. In words: Cell-based ELISA for cell-specific binding, HepG2. As to conditions: methanol-fixed HepG2 cells, M13 PHD-7 phage clones. Details: species or system human. The procedure:
(§3) For screening cell-specific binding phage display peptides, confluent HepG2 or HUVEC cells grown in DMEM-F12-complete in a 96-well plate fixed with methanol, stored at 4° C. Applied 250 μl/well of diluted phage and incubated in wells for 1 hour while shaking. Stopped reactions with 75 ul of 1M HCl after ˜5-7 min, read at 450 nm.
(§4) Representative display peptides isolated from panning against either HepG2 or HUVEC cells with the Trp cage and M13 libraries were tested for cell-specific binding. The peptide having the amino acids sequence SIGYLPL (SEQ ID NO: 532) and the peptide having the amino acid sequence LTAELTP (SEQ ID NO: 533) served as positive HepG2 binding controls. The 7-mer display peptide represented by the amino acid sequence HPQ served as a negative binding control.
as §2

A further test has as its system HUVEC cells. In words: Cell-based ELISA for cell-specific binding, HUVEC. As to conditions: M13 PHD-7 phage clone. Details: species or system human. The procedure:
as §3, §4, §2

Test [4] has as its system antibody AB167. Description: Phage ELISA with antibody AB167 for display of Trp cage TC5b on the phage capsid. The format is binding, rabbit. Conditions: 1×10^6, 1×10^7 and 1×10^8 phage per well. How it is done:
as §1
Two negative controls were used. One was the 10-3b vector with no insert and the other was the 10-3b vector containing the S-Tag. All phage were incubated with the AB167 antibody at 1×10^6, 1×10^7 and 1×10^8 phage per well for the ELISA.

In test [5] the test system is antibody AB167. Description: Western analysis of phage lysates with antibody AB167. The format is binding, rabbit. Conditions: SDS-PAGE separated proteins, AB167 diluted 1:2500. How it is done: For Western analysis, phage were purified by double precipitation with PEG and denatured by boiling in Tris-Glycine SDS sample buffer (2×) with 1% beta-mercaptoethanol (BME). A 10 μl sample containing 1×10^11 pfu/ml was loaded into a well of a 1 mm 4% to 20% Tris-Glycine gel (Invitrogen®) and electrophoresed for 1.5 hours at 150 volts (constant voltage) in Tris-Glycine SDS running buffer. The separated proteins were transferred to a PVDF membrane (1.5 hours at room temperature) and blocked with 3% non-fat dry milk in TBS-T (0.05%) for one hour at room temperature. The membrane was probed for two hours with antibody AB167 diluted 1:2500 at room temperature followed by three five minute washes with TBS-T. Goat anti-rabbit HRP diluted 1:5000 was used to detect the bound AB167 antibody. It was incubated with the membrane for one hour at room temperature followed by four 10 minute washes and the membrane was developed with SuperSignal West Femto Maximum Sensitivity Substrate® (Pierce®) according to the manufacturer's instructions. MagicMark XP Western Protein Standards were used for size reference standards.
For the Western blot analysis of Trp cage TC5b expressed with the 10-3b T7Select® vector, proteins in lysates from phage infected cells were separated by SDS-PAGE in Coomasie stained gel. […]

As to DAYPQWLFTPGPTSGRPPPL* [624-55-21], in the test on 16HBE140- cells, the “OD 450 nm” value was found to be 0.15.

Consider DPYAQWLQSMGPHSGRPPPR* [624-55-29], for which, in the test on 16HBE140- cells, the “OD 450 nm” value is 0.39 and the “Binding to 16HBE140- cells (in words)” value is listed as “demonstrated binding”.

As to DRYPQWLNGMGPSSGRPPPN* [624-55-20], the “OD 450 nm” value in the test on 16HBE140- cells is recorded as 0.22.

In the test on antibody AB167 [1], NL*IQWLKDGGPSSGRPPPS [E7/B] came in with a Percent antibody binding of 32%.

For the substance NL*IQWLKDGGPSSGRPPPS [E7/C], the Percent antibody binding in the test on antibody AB167 [1] was found to be 65%.

Regarding “NLQEFLF [M13 PHD-7 phage display peptide isolated by panning against HepG2 cells]”, the “Binding/staining of FITC-labeled phage on methanol-fixed HepG2 cells” value in the test on HepG2 cells [2] is given as “bound”. In the test on HepG2 cells [3], the “Binding to HepG2 cells (cell-based ELISA)” value is reported as “HepG2 specific binding”. The “Binding to HUVEC cells (cell-based ELISA)” value with HUVEC cells was “did not bind”.

NLYIQ*LKDGGPSSGRPPPS [E12/B] had a Percent antibody binding in the test with antibody AB167 [1] of 50%.

As for NLYIQ*LKDGGPSSGRPPPS [E12/C], the Percent antibody binding in the test on antibody AB167 [1] is 62%.

With “NLYIQWLKDGGPSSGRPPPS [10-3b/TC5b, reference compound]”, in the test on antibody AB167 [4], the “ELISA signal with antibody AB167” value is “signal was detected”. The “Binding of antibody AB167 to protein of phage lysate (Western blot)” value in the test on antibody AB167 [5] is on record as “contained a protein that bound the Trp cage specific antibody AB167”. Besides, in the test with 16HBE140- cells, the “OD 450 nm” value amounted to 0.22 and the “Binding to 16HBE140- cells (in words)” value was “low”.

The substance NLYIQWLKDGGPSSGRPPPS [B1/C] returned a Percent antibody binding with antibody AB167 [1] of 100%.
